Values quoted from earlier work as cited in patent US20240350385A1 (priority 2023, published 2024).

Test system: patients
Conditions: in vivo

2-Octyl cyanoacrylate
incidence of allergic contact dermatitis: 2.7%

C=C(C#N)C(=O)OCCCC [n-Butyl cyanoacrylate]
incidence of allergic contact dermatitis: 2.2%
